# Laboratory results reported in PubChem BioAssay (NCI).
#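 All cell lines were grown in 96-well plates and treated with compound for 48 hours. At the GI50, growth is halved. TGI marks complete inhibition of growth.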 Where a SMILES comes first, the peptide text is derived from it. [ ]: non-standard residue; d: D form.
# Columns and labels:
# Assay in all cases: NCI anticancer screen, dose series, 48 h
# UACC-257 melanoma = system: UACC-257 melanoma
# SF-539 CNS = system: SF-539 CNS
# KM12 colon = system: KM12 colon
# CAKI-1 renal = system: CAKI-1 renal
# MOLT-4 leukemia = system: MOLT-4 leukemia
# DU-145 prostate = system: DU-145 prostate
# BT-549 breast = system: BT-549 breast
# MDA-MB-231 breast = system: MDA-MB-231 breast
# MDA-MB-435 = system: MDA-MB-435
# NCI/ADR-RES ovarian = system: NCI/ADR-RES ovarian
Structure (SMILES),TGI (UACC-257 melanoma) [µM],TGI (SF-539 CNS) [µM],TGI (KM12 colon) [µM],TGI (CAKI-1 renal) [µM],TGI (MOLT-4 leukemia) [µM],GI50 (DU-145 prostate) [µM],TGI (DU-145 prostate) [µM],GI50 (SF-539 CNS) [µM],GI50 (BT-549 breast) [µM],TGI (BT-549 breast) [µM],GI50 (KM12 colon) [µM],GI50 (CAKI-1 renal) [µM],GI50 (MDA-MB-231 breast) [µM],TGI (MDA-MB-231 breast) [µM],GI50 (MOLT-4 leukemia) [µM],GI50 (MDA-MB-435) [µM],TGI (MDA-MB-435) [µM],GI50 (NCI/ADR-RES ovarian) [µM],TGI (NCI/ADR-RES ovarian) [µM],GI50 (UACC-257 melanoma) [µM]
O=C(CCc1cc(-c2ccc(F)cc2)n[nH]1)N(Cc1ccccc1)Cc1ccccc1,> 100,> 100,> 100,> 100,> 100,,,,,,,,,,,,,,,
N#C/C(=C1\OC(N)=C(c2ccc(Cl)cc2)C1=O)c1ccc(Cl)cc1,29,27.6,31.4,34.1,50.9,,,,,,,,,,,,,,,
CC1=CC(=O)N2C(OC[C@@H]2c2ccccc2)O1 (stereo partly specified),> 100,> 100,> 100,> 100,> 100,,,,,,,,,,,,,,,
N#Cc1cc2c(cc1Cl)SC(=Nc1ccccc1)N(S(=O)(=O)c1ccc(Br)s1)S2(=O)=O,,39,35.7,33.8,46.2,20.6,43.4,21.6,17.7,32.2,18.7,17.5,22.8,42.1,15.9,16.1,33.9,19.8,43.8,
N#CC(C#N)C(c1ccccc1)c1ccccc1,> 100,> 100,> 100,> 100,> 100,,,,,,,,,,,,,,,
O=C1C(=Cc2ccc(F)cc2)C(=O)c2ccccc21,> 100,> 100,> 100,> 100,> 100,,,,,,,,,,,,,,,
O/N=C1\C(=C\c2ccc3c(c2)OCCO3)CCCC1C(NO)c1ccc2c(c1)OCCO2 (stereo unspecified),49.2,26.8,52,> 100,32.4,,,,,,,,,,,,,,,
c1ccc(-c2cc3n4c(-c5ccccc5)nn(-c5ccccc5)c4cnc-3n2)cc1,> 50,> 50,> 50,> 50,> 50,,,13.7,48.6,> 50,> 50,15.1,16.4,> 50,> 50,> 50,> 50,> 50,> 50,> 50
CC/C(C)=C1\CCC(CN(C)C)C1=O (stereo unspecified),31.4,32.7,28.4,4.36,70.9,,,,,,,,,,,,,,,
CCSc1nc(N)c2cnn(CC)c2n1,36.5,27.3,> 100,56.3,> 100,5.75,40.3,6.67,,,3.15,4.63,2.08,7.29,3.99,7.64,37.8,18.5,63.3,10.2
CC1=C2C3OC(=O)C(C)C3C(O)C[C@@]2(C)C(=O)CC1 (stereo partly specified),> 100,> 100,> 100,> 100,> 100,,,,,,,,,,,,,,,
O=[N+]([O-])c1ccc2nc(-c3ccc(Cl)cc3)[nH]c2c1,43.2,39.6,,93.9,> 100,,60.5,,,64.6,,,,81.5,,,46.8,,57.6,
CC(=O)OC1=C(CC(C)(C)C)C(=O)c2ccccc2C1=O,> 100,> 100,> 100,> 100,,,> 100,,,,,,,> 100,,,60.8,,85.3,
CCCCCC/C(CC(=O)CCC(=O)NCCc1ccccc1)=N\Nc1ccc([N+](=O)[O-])cc1[N+](=O)[O-],> 100,> 100,> 100,> 100,60.3,,,,,,,,,,,,,,,
NC1=Nc2ccccc2Sc2ccccc21,> 100,> 100,> 100,> 100,> 100,,,,,,,,,,,,,,,
CN(C)C(=S)/N=c1\ss/c(=N\S(=O)(=O)c2ccccc2)n1C,> 100,> 100,> 100,> 100,> 100,,,,,,,,,,,,,,,
CCOC(=O)CN1C(=O)C(=O)N(c2ccc(OC)c3ccccc23)C1=O,> 100,> 100,> 100,> 100,> 100,,> 100,,,> 100,,,,,,,> 100,,> 100,
CN1CCN(c2nc3cc(F)ccc3n3cccc23)CC1,79,79.2,> 100,79,81.8,,,,,> 100,,,,> 100,,,64.6,,> 100,
CC(=O)/C(=C/N1CCN(C(=O)c2ccco2)C1=S)C(=O)c1ccccc1,,3.56,> 50,32.5,> 50,11,30.4,1.09,5.54,18.1,8.4,9.29,9.46,19.8,15.9,10.7,43.9,,,
COc1ccc2c(c1)C=CC1C2CC[C@]2(C)C(NC(=O)/C=C/c3ccc(O)c(O)c3)CCC12 (stereo partly specified),42.7,43.5,,24.7,22.7,16.1,39.6,18.6,19.6,56.9,,7.1,12.1,25.9,5.56,14.7,36.6,11.8,33.5,20.8
N#CNC1=NCCC(=O)N1CCc1c[nH]c2ccccc12,> 100,> 100,> 100,,> 100,,,,,,,,,,,,,,,
CSCC[C@H](NC(=O)[C@@H](N)CC(N)=O)C(=O)N[C@@H](Cc1c[nH]c2ccccc12)C(=O)N[C@@H](CCC(N)=O)C(=O)N[C@@H](CCC(=O)O)C(=O)N[C@H](C(=O)NCC(=O)N[C@@H](CCCCN)C(=O)N[C@H](C)C(=O)O)C(C)C (H-NMWQEVGK[dA]-OH),> 100,> 100,> 100,> 100,> 100,,> 100,,,,,,,> 100,,,> 100,,> 100,
